Reference: patent US20260224714A1, “CYCLING LYSOSOMAL TARGETING ANTIBODY CONJUGATES” (Lycia Therapeutics, Inc., priority 2023, published 2026)

Tests used:
Type in all cases: cell-based
[1] = tested on: Alexa Fluor647 labelled human IgE; assay: Uptake assay: internalization of Alexa Fluor 647 labelled IgE in wild type HepG2 cells (Example 6); conditions: equimolar conjugate and AF647 IgE, 2 hours, median cellular AF647 intensity by flow cytometry, normalized to unconjugated parent protein
Summary of the method: (§1)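 HepG2 cells (wild type or ASGPR1/2 KO) pre-blocked with Fc receptor blocker, then exposed 2 h to conjugate precomplexed equimolar with AF647-labelled human IgE (30 min, room temperature) at 300 nM to 1.23 nM final. Median cellular AF647 by flow cytometry, normalized to unconjugated parent protein.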

[2] = tested on: Alexa Fluor647 labelled human IgE; assay: Uptake assay: internalization of Alexa Fluor 647 labelled IgE in ASGPR1/2 KO HepG2 cells (Example 6); conditions: equimolar conjugate and AF647 IgE, normalized to unconjugated parent protein
Summary of the method: as §1

[3] = tested on: LysoLight-labelled human IgE; assay: Lysosomal degradation of LysoLight-labelled IgE in HepG2 cells, live cell imaging (Example 7); conditions: equimolar conjugate:LysoLight IgE, area under the curve of deep red fluorescence over three days, normalized to unconjugated parent protein
Summary of the method: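 Conjugate precomplexed 30 min at room temperature with equimolar LysoLight-labelled human IgE, added to Fc-receptor-blocked HepG2 cells at final 100–1.23 nM. Red fluorescence, released on lysosomal cathepsin cleavage, imaged hourly for 72 h starting 1 h post-addition; area under the fluorescence–time curve taken as total degradation.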

HepG2 cells = assay: Externalization of conjugates from a cell following internalization (cycling), high-throughput format (Example 11); conditions: 50 nM conjugate 1 hour, stringent washes, Alexa Fluor 647-labelled a-human IgG 1 hour, FACS, normalized to unconjugated parent protein, average of two replicate wells
Summary of the method: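 25,000 HepG2 cells incubated with conjugate for 1 h at indicated concentrations, then chilled and washed (DPBS, pH 5.2 acetate, pH 2.5 EBSS) to strip surface conjugate. Recycled conjugate captured by 1 μg/ml AF647 anti-human IgG in 37 °C EMEM for 1 h; median AF647 by flow cytometry, mean of two wells.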

human IgE = assay: Degradation of initial and subsequent dose of target in HepG2 cells (Example 12, Table 30); conditions: normalized to unconjugated; for Normalized Fluorescence Post Wash Median Green: after wash, probe-conjugated IgE added for 4 hours, subsequent dose of target; for Normalized Fluorescence Precomplex Median Deep Red: precomplexed equimolar conjugate:IgE (cathepsin-cleavable quenched fluorescent probe) added for 2 hours, initial dose of target
Summary of the method: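 HepG2 cells exposed 2 h to conjugate precomplexed (30 min, 37 °C, equimolar) with 647-quenched-probe human IgE, acid/ice washed, then given 488-probe IgE without conjugate for 4 h. Median 647 (initial) and 488 (recycled) fluorescence by flow cytometry, normalised to unconjugated parent; mean of two wells.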

recombinant IgE = assay: Degradation of super-stoichiometric levels of target in HepG2 cells (Example 13, Table 31); conditions: 1 nM conjugate and 25 nM IgE for three days, (A-B)/C IgE depleted relative to conjugate, average of two replicate wells
Summary of the method: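 HepG2 cells in EMEM/10% FBS were incubated with 1 nM conjugate plus 25 nM recombinant IgE for 72 h. IgE in medium at start and end quantified by MSD/ELISA-type assay; value is molar equivalents IgE depleted per conjugate, (initial − day-3 IgE)/conjugate concentration, mean of two wells.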

SMILES	Normalized Fluorescence 3.7 nM WT [1]	Normalized Fluorescence 100 nM WT [1]	Normalized Fluorescence 100 nM ASGPR KO [2]	Normalized Fluorescence 3.7 nM [3]	Normalized Fluorescence 100 nM [3]	Normalized Fluorescence (HepG2 cells)	Normalized Fluorescence Post Wash Median Green (human IgE)	Normalized Fluorescence Precomplex Median Deep Red (human IgE)	Average Degradation (Molar equivalents) (recombinant IgE)
CC(=O)N[C@@H]1[C@@H](O)[C@@H](O)[C@@H](CO)O[C@@H]1c1cn(CCOCCOCCNC(=O)NCCCC(CCCNC(=O)NCCOCCOCCn2cc([C@H]3O[C@H](CO)[C@H](O)[C@H](O)[C@H]3NC(C)=O)nn2)(CCCNC(=O)NCCOCCOCCn2cc([C@H]3O[C@H](CO)[C@H](O)[C@H](O)[C@H]3NC(C)=O)nn2)NC(=O)CCOCCOCCOCCNS(=O)(=O)c2ccc(N3C(=O)C=CC3=O)cc2)nn1 [Compound 2329]	56.3	201.8	1.1	11.6	3.0	40.3	3.0	3.3	4.7 Molar equivalents
CCC[C@H]1O[C@H](CO)[C@H](O)[C@H](O)[C@H]1Nc1nccc(OCCOCCOCCNC(=O)NCCCC(CCCNC(=O)NCCOCCOCCOc2ccnc(N[C@@H]3[C@@H](O)[C@@H](O)[C@@H](CO)O[C@@H]3CCC)n2)(CCCNC(=O)NCCOCCOCCOc2ccnc(N[C@@H]3[C@@H](O)[C@@H](O)[C@@H](CO)O[C@@H]3CCC)n2)NC(=O)CCOCCOCCOCCNS(=O)(=O)c2ccc(N3C(=O)C=CC3=O)cc2)n1 [Compound 2330]	54.5	166.6	1.1	8.1	2.4	42.9	2.9	3.0	2.8 Molar equivalents
CC(=O)N[C@H]1[C@H](OCCCCC(=O)NCCCNC(=O)CCOCC(COCCC(=O)NCCCNC(=O)CCCCO[C@@H]2O[C@H](CO)[C@H](O)[C@H](O)[C@H]2NC(C)=O)(COCCC(=O)NCCCNC(=O)CCCCO[C@@H]2O[C@H](CO)[C@H](O)[C@H](O)[C@H]2NC(C)=O)NC(=O)CCCCCCCCCCC(=O)NCCN2C(=O)C=CC2=O)O[C@H](CO)[C@H](O)[C@@H]1O [Compound 2401-C]	10.3	44.7	1.2	1.1	1.8	3.2	1.2	1.7	−1.0 Molar equivalents
CC(=O)N[C@H]1[C@H](OCCOCCOCCOCCNC(=O)CCOCC(COCCC(=O)NCCOCCOCCOCCO[C@@H]2O[C@H](CO)[C@H](O)[C@H](O)[C@H]2NC(C)=O)(COCCC(=O)NCCOCCOCCOCCO[C@@H]2O[C@H](CO)[C@H](O)[C@H](O)[C@H]2NC(C)=O)NC(=O)CCOCCOCCOCCOCCNC(=O)c2ccc(N3C(=O)C=CC3=O)cc2)O[C@H](CO)[C@H](O)[C@@H]1O [Compound 2402-C]	19.6	84.3	1.3	2.2	2.1	10.5	1.6	2.1	0.7 Molar equivalents
